Biological target: T1, TcMCU-EMRE (TcMCU-EMREEM2) (Tribolium castaneum, UniProt D6WIX5)
T1 construct: gene MCU; MCU without N-terminal domain (residues 1-168 removed), covalently fused to EMRE by flexible peptide linker; tetramer; Venus fusion removed by PreScission cleavage; expressed in Expi293 cells; purified, reconstituted in liposomes and planar bilayer; with Essential MCU regulator, mitochondrial
T1 sequence (D6WIX5 169-367): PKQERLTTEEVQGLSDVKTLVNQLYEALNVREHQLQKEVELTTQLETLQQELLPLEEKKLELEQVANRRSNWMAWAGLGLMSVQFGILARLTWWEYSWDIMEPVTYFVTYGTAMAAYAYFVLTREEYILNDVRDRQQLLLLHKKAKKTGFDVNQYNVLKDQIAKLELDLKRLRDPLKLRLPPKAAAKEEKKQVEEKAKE
T1 sequence (D6X268 1-90 partner): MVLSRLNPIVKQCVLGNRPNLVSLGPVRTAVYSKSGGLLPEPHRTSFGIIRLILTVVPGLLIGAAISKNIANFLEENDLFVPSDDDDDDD
Test: planar lipid bilayer electrophysiology, inhibition of macroscopic Ca2+ currents
Format: biochemical
Conditions: symmetric 40 mM CaCl2, -160 mV, pH 7.6, 22-24 C; RuRed titrated in trans chamber with 1 uM RuRed in cis; IMS-side blocker

Structure (SMILES): Cl.Cl.Cl.Cl.Cl.Cl.N.N.N.N.N.N.N.N.N.N.N.N.N.N.[O-2].[O-2].[Ru+3].[Ru+3].[Ru+4] [ruthenium red]
- IC50: ~40 nM
